Laboratory results published in patent US20040204486A1, “Anandamide and structurally related lipids as vanilloid receptor modulators” (priority 2000, published 2004).
Where two headings read alike, the source gives them in different places. No end group written: not given here.

What was measured:
rat hepatic artery = test: Recording of tension: relaxation of isolated rat hepatic artery contracted with phenylephrine; details: for effect on anandamide-induced relaxation / effect on AM404-induced relaxations: capsaicin 10 μM pre-treatment; for effect on anandamide-induced relaxation: 8-37 CGRP 2 μM; for effect on AM404-induced relaxations: 8-37 CGRP 3 μM, SR141716A 0.3 μM; for EC50: read-out: pEC50 of relaxation (converted); for vasodilator response (relaxation): α-latrotoxin 1 nM
rat mesenteric artery = test: Recording of tension: relaxation of isolated rat mesenteric artery contracted with phenylephrine; details: for effect on anandamide-induced relaxation / effect on relaxant effects of 1-arachidonylglycerol and 2-arachidonylglycerol: capsaicin 10 μM pre-treatment; for effect on anandamide-induced relaxation: 8-37 CGRP 2 μM; for effect on relaxant effects of 1-arachidonylglycerol and 2-arachidonylglycerol: rat mesenteric arteries, capsazepine 1 μM
[1] = system: guinea pig basilar artery; test: Recording of tension: relaxation of isolated guinea pig basilar artery contracted with prostaglandin F2α; details: for effect on anandamide-induced relaxation: capsaicin 10 μM pre-treatment, 8-37 CGRP 2 μM; for Emax / EC50: Cavia porcellus; for Emax: read-out: Emax of relaxation, guinea pig basilar artery; for EC50: read-out: pEC50 of relaxation, guinea pig basilar artery (converted)
[2] = biological target: cannabinoid CB1 receptors (Homo sapiens, UniProt P21554); details: cited from earlier work
cyclic AMP content = test: Measurement of cyclic AMP content in rat hepatic artery segments
[3] = system: CGRP release from perivascular sensory nerves; test: Measurement of CGRP release from rat hepatic artery segments (radioimmunoassay)
Protocol: Measurement of CGRP and cyclic AMP.
After 10 minutes the segments were removed and the physiological salt solution was evaporated.

vanilloid receptors = biological target: T1, vanilloid receptors (Rattus norvegicus, UniProt O35433); test: Schild analysis of capsazepine antagonism of relaxation in rat hepatic artery; details: for slope of the Schild regression line: mean±SEM; for Kb: pA2 (Schild plot)
T1 construct: To determine whether native vanilloid receptors might be involved in the action of anandamide; from tissue; host or cells: hepatic artery ring segments from female Wistar-Hannover rats
Protocol: Recording of tension. Experiments were performed on hepatic (400 μm outer diameter) and mesenteric (200 μm outer diameter) arteries from female Wistar-Hannover rats (200-250 g) and on basilar arteries (300 μm outer diameter) from male guinea pigs. […] All experiments were performed in the presence of N^G-nitro-L-arginine (0.3 mM) and indomethacin (10 μM) to eliminate any contribution of nitric oxide and cyclooxygenase products, respectively (refs. 38, 23). Relaxant responses were studied in preparations contracted with phenylephrine (rat hepatic and mesenteric arteries) and prostaglandin F2α (guinea pig basilar artery) (refs. 38, 43). When stable contractions were obtained, agonists were added cumulatively to determine concentration-response relationships.
Some preparations were pre-treated with capsaicin for 1 hour followed by washout for 20 minutes. Each vessel segment was exposed to only one treatment. The experiments were carried out with the approval of the local ethics committee.
Calculations and statistics. Relaxations are expressed as percentage reversal of the prevailing contraction (100% indicates a complete reversal to basal tension). […] Data are presented as means±s.e.mean (vertical lines in figures), and n indicates the number of vascular segments (animals) examined. pA2 and slope values of the Shild plots were estimated according to the Jackknife method (ref. 46). Statistical analysis was performed by using Student's t-test (two-tailed), Mann-Whitney U-test, or analysis of variance (ANOVA) on log transformed values (cyclic AMP) followed by Bonferroni Dunn's post hoc test (Statview 4.12). Statistical significance was accepted when P<0.05.

[4] = rat mesenteric artery, capsazepine 3 μM
[5] = guinea pig basilar artery, capsazepine 3 μM
[6] = Rattus norvegicus, control (agonist alone)
[7] = guinea pig basilar artery, 10 μM
[8] = segments pre-treated with capsaicin (10 μM)
[9] = Rattus norvegicus, in presence of SR141716A (0.3 μM)
[10] = in presence of SR141716A (0.3 μM)

T1 sequence (O35433 whole entry): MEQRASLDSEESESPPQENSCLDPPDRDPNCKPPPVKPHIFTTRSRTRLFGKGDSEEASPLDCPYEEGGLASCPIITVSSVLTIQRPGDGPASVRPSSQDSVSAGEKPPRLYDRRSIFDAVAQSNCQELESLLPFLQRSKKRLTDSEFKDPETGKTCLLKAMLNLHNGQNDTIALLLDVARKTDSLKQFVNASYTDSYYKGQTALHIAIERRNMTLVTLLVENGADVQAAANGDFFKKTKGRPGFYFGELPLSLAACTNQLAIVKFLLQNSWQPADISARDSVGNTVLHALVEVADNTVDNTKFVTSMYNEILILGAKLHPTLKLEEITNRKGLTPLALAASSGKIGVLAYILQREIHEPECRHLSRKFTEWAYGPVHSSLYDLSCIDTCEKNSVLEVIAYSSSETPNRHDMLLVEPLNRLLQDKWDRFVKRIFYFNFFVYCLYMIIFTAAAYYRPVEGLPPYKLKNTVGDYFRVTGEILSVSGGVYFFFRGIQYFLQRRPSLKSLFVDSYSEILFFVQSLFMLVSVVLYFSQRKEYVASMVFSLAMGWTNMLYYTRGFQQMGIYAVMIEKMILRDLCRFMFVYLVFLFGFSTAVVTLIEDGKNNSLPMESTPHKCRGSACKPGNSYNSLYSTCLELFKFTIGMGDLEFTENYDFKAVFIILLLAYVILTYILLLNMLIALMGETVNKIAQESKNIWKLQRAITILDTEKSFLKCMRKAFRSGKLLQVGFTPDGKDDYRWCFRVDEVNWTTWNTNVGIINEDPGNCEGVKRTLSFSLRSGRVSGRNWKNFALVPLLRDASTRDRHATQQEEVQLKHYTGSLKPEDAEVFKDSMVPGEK
Chain of cannabinoid CB1 receptors (P21554 whole entry): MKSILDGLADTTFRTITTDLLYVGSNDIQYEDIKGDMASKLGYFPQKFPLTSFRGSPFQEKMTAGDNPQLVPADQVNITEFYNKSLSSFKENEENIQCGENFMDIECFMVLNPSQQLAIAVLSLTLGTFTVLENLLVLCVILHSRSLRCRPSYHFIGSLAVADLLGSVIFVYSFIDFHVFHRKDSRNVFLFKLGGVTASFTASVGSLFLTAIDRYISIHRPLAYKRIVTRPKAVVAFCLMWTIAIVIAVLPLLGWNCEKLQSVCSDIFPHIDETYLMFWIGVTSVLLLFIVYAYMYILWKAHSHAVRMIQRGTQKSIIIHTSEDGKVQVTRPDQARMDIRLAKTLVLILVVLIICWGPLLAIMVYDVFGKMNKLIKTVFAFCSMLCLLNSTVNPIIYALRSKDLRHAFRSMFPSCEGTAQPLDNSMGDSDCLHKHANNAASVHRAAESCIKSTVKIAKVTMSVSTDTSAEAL

In the case of “8-37 CGRP: selective CGRP receptor antagonist (VTHRLAGLLSRSGGVVKNNFVPTNVGSKAF; ends and bridges not checked; UniProt P06881 90-119, looked up, fragment)”, the “effect on anandamide-induced relaxation” value (rat hepatic artery; capsazepine 3 μM) is reported as “inhibited”, the “effect on AM404-induced relaxations” value (rat hepatic artery; capsazepine 3 μM) is reported as “abolished” and the “effect on anandamide-induced relaxation” value (rat mesenteric artery; [4]) is reported as “inhibited”. The “effect on anandamide-induced relaxation” value [1, 5] was “inhibited”.

In the case of `CCCCC/C=C\C/C=C\C/C=C\C/C=C\CCCCOCC(O)CO` (stereo not shown) [1-arachidonylglycerol], the vasodilator action (rat mesenteric artery; rat mesenteric arteries contracted with phenylephrine) is reported as “vasodilators”.

In the case of `CCCCCC=CCC=CCC=CCC=CCCCC(=O)Nc1ccc(O)cc1` [AM404, N-(4-hydroxyphenyl)-5,8,11,14-eicosatetraenamide], the Ki [2] is listed as 1760 nM, the “vasodilator potency compared to anandamide” value (rat hepatic artery) is listed as ~10 times and the Emax (rat hepatic artery; [6]) is listed as 97 ± 2%. For the same molecule, the EC50 (rat hepatic artery; [6]) was 39.8 nM, the “effect on anandamide-induced relaxation” value (rat hepatic artery; capsazepine 3 μM) was “inhibited this response” and the pEC50 of relaxation (rat hepatic artery; control (agonist alone)) was 7.3±0.2. For the same molecule, the pEC50 of relaxation (rat hepatic artery; in presence of capsazepine (3 μM)) was 6.4±0.2.

For `CCCCCCC(C)(C)c1ccc([C@@H]2C[C@H](O)CC[C@H]2CCCO)c(O)c1` [CP 55,940], the “relaxation at 10 μM” value (rat hepatic artery; 10 μM) was “significant relaxation”, the “relaxation after pre-treatment with capsaicin” value (rat hepatic artery; 10 μM, capsaicin (10 μM) pre-treatment) was “resistant to pre-treatment with capsaicin” and the “relaxation at 10 μM” value [1, 7] was “significant relaxation”. The “relaxation after pre-treatment with capsaicin” value ([1]; guinea pig basilar artery, 10 μM, capsaicin (10 μM) pre-treatment) was “resistant to pre-treatment with capsaicin”.

In the case of `CCCCCCC(C)(C)c1cc(O)c2c(c1)OC(C)(C)[C@@H]1CC=C(CO)C[C@@H]21` [HU 210], the relaxation (rat hepatic artery) is reported as “did not produce any relaxation” and the relaxation ([1]; guinea pig basilar artery) is reported as “did not produce any relaxation”.

In the case of `Cc1c(C(=O)NN2CCCCC2)nn(-c2ccc(Cl)cc2Cl)c1-c1ccc(Cl)cc1.Cl` [SR141716A, N-(piperidin-1-yl)-5-(4-chlorophenyl)-1-(2,4-dichlorophenyl)-4-methyl-1H-pyrazole-3-carboxamide hydrochloride], the “effect on AM404-induced relaxations” value (rat hepatic artery; capsazepine 3 μM) is reported as “without effect”.

In the case of `Cc1c(C(=O)c2cccc3ccccc23)c2cccc3c2n1[C@H](CN1CCOCC1)CO3` [WIN 55,212-2], the relaxation (rat hepatic artery) is reported as “did not produce any relaxation” and the relaxation ([1]; guinea pig basilar artery) is reported as “did not produce any relaxation”.

In the case of `CCCCC/C=C\C/C=C\C/C=C\C/C=C\CCCC(=O)NCCO` [anandamide, arachidonylethanolamide], the “tissue content of cyclic AMP” value (cyclic AMP content; anandamide 10 μM or CGRP 10 nM, 5 minutes) is reported as “increase in tissue content of cyclic AMP”, the “tissue content of cyclic AMP after capsaicin pre-treatment” value (cyclic AMP content; [8]) is reported as “absent” and the “release of CGRP” value ([3]; anandamide 10 μM, 10 minute exposure) is reported as “significant release of CGRP”. For the same molecule, the “release of CGRP after capsaicin pre-treatment” value [3, 8] was “absent”, the “relaxation at 10 μM” value (rat hepatic artery; 10 μM) was “completely relaxed” and the Emax (rat hepatic artery; [6]) was 100 ± 1%. For the same molecule, the EC50 (rat hepatic artery; [6]) was 355 nM, the Emax (rat hepatic artery; [9]) was 97 ± 1% and the pEC50 of relaxation (rat hepatic artery; control (agonist alone)) was 6.49±0.01. It also gave a pEC50 of relaxation (rat hepatic artery; [10]) of 6.44±0.12, an Emax ([1]; control (agonist alone)) of 92 ± 3% and an Emax [1, 10] of 91 ± 2%. The EC50 ([1]; control (agonist alone)) was 955 nM, the EC50 [1, 10] was 776 nM and the “relaxation at 10 μM” value [1, 7] was “completely relaxed”.

With `CCCCC/C=C\C/C=C\C/C=C\C/C=C\CCCC(=O)O` [arachidonic acid] the “relaxation at 10 μM” value (rat hepatic artery; 10 μM) was “inactive” and the “relaxation at 10 μM” value [1, 7] was “inactive”.

In the case of `COc1cc(CNC(=O)CCCC/C=C/C(C)C)ccc1O` [capsaicin], the “relaxation at 10 μM” value (rat hepatic artery; 10 μM) is reported as “completely relaxed”, the Emax (rat hepatic artery; [6]) is reported as 99 ± 1% and the Emax (rat hepatic artery; Rattus norvegicus, in presence of SR141716A (10 μM)) is reported as 90 ± 3%. The “effect on anandamide-induced relaxation” value (rat hepatic artery; capsazepine 3 μM) was “abolished”, the “effect on AM404-induced relaxations” value (rat hepatic artery; capsazepine 3 μM) was “abolished” and the EC50 (rat hepatic artery; control (agonist alone)) was 4.27 nM. For the same molecule, the pEC50 of relaxation (rat hepatic artery; in presence of SR141716A (10 μM)) was 7.42±0.12, the “effect on relaxant effects of 1-arachidonylglycerol and 2-arachidonylglycerol” value (rat mesenteric artery) was “abolished” and the “effect on anandamide-induced relaxation” value (rat mesenteric artery; [4]) was “abolished”. The “relaxation at 10 μM” value [1, 7] was “completely relaxed” and the “effect on anandamide-induced relaxation” value [1, 5] was “abolished”.

With `Oc1cc2c(cc1O)CN(C(=S)NCCc1ccc(Cl)cc1)CCC2` [capsazepine] the “slope of the Schild regression line” value (vanilloid receptors; capsaicin as agonist) was 2.12±0.36, the “slope of the Schild regression line” value (vanilloid receptors; methanandamide as agonist) was 2.41±0.32 and the Kb (vanilloid receptors; capsaicin as agonist) was 575 nM. The Kb (vanilloid receptors; methanandamide as agonist) was 457 nM, the “effect on anandamide-induced release of CGRP” value ([3]; capsazepine 10 μM) was “inhibited” and the “effect on anandamide-induced relaxation” value (rat hepatic artery; capsazepine 3 μM) was “significantly inhibited”. The “effect on AM404-induced relaxations” value (rat hepatic artery; capsazepine 3 μM) was “significant right-ward shift”, the “effect on capsaicin-induced relaxation” value (rat hepatic artery; capsazepine 3 μM) was “significantly inhibited” and the “effect on relaxant effects of 1-arachidonylglycerol and 2-arachidonylglycerol” value (rat mesenteric artery) was “inhibited”. The “effect on anandamide-induced relaxation” value (rat mesenteric artery; [4]) was “significantly inhibited”, the “effect on capsaicin-induced relaxation” value (rat mesenteric artery; [4]) was “significantly inhibited” and the “effect on anandamide-induced relaxation” value [1, 5] was “significantly inhibited”. The “effect on capsaicin-induced relaxation” value [1, 5] was “significantly inhibited”.

For `NCCO` [ethanolamine], the “relaxation at 10 μM” value (rat hepatic artery; 10 μM) was “inactive” and the “relaxation at 10 μM” value [1, 7] was “inactive”.

With `CCCCC/C=C\C/C=C\C/C=C\C/C=C\CCCC(=O)N[C@H](C)CO` [methanandamide] the Emax (rat hepatic artery; [6]) was 99 ± 1%, the EC50 (rat hepatic artery; [6]) was 316 nM and the Emax (rat hepatic artery; [9]) was 99 ± 1%. It also gave an Emax of relaxation (rat hepatic artery; control (agonist alone)) of 97±1%, a pEC50 of relaxation (rat hepatic artery; control (agonist alone)) of 6.53±0.08 and a pEC50 of relaxation (rat hepatic artery; [10]) of 6.30±0.04.

For `CCCCCCCCCCCCCCCC(=O)NCCO` [palmitylethanolamide], the relaxation (rat hepatic artery) was “did not produce any relaxation” and the relaxation ([1]; guinea pig basilar artery) was “did not produce any relaxation”.

B1: α-latrotoxin (protein, UniProt P23631 21-1199, looked up)
Alpha-latrotoxin-Lt1a: EGEDLTLEEKAEICSELELQQKYVDIASNIIGDLSSLPIAGKIAGTIAAAAMTATHVASGRLDIEQTLLGCSDLPFDQIKEVLENRFNEIDRKLDSHSAALEEITKLVEKSISVVEKTRKQMNKRFDEVMKSIQDAKVSPIISKINNFARYFDTEKERIRGLKLNDYILKLEEPNGILLHFKESRTPTDDSLQAPLFSIIEEGYAVPKSIDDELAFKVLYALLYGTQTYVSVMFFLLEQYSFLANHYYEKGYLEKYDEYFNSLNNVFLDFKSSLVGTGTSNNEGLLDRVLQVLMTVKNSEFLGLEKNGVDEMLNEKINLFNKIKEEIEGKQKMTLSETPENFAQISFDKDITTPIGDWRDGREVRYAVQYASETLFSKISHWSDPVSVREKACPTLRMPVDQTRRNVLVFRKFDSSKPQLVGEITPYLSNFIDIDRDLYNAASNPDSAVGFKEFTKLNYDGANIRATFDHGRTVFHAAAKSGNDKIMFGLTFLAKSTELNQPDKKGYTPIHVAADSGNAGIVNLLIQRGVSINSKTYHFLQTPLHLAAQRGFVTTFQRLMESPEININERDKDGFTPLHYAIRGGERILEAFLNQISIDVNAKSNTGLTPFHLAIIKNDWPVASTLLGSKKVDINAVDENNITALHYAAILGYLETTKQLINLKEINANVVSSPGLLSALHYAILYKHDDVASFLMRSSNVNVNLKALGGITPLHLAVIQGRKQILSLMFDIGVNIEQKTDEKYTPLHLAAMSKYPELIQILLDQGSNFEAKTNSGATPLHLATFKGKSQAALILLNNEVNWRDTDENGQMPIHGAAMTGLLDVAQAIISIDATVVDIEDKNSDTPLNLAAQNSHIDVIKYFIDQGADINTRNKKGLAPLLAFSKKGNLDMVKYLFDKNANVYIADNDGMNFFYYAVQNGHLNIVKYAMSEKDKFEWSNTDNNRRDECPNEECAISHFAVCDAVQFDRIEIVKYFVGTLGNFAICGPLHQAARYGHLDIVKYLVEEEFLSVDGSKTDTPLCYASENGHFTVVQYLVSNGAKVNHDCGNGMTAIDKAITKNHLQVVQFLAANGVDFRRKNSRGTTPFLTAVAENALHIAEYLIREKRQDININEQNVDKDTALHLAVYYKNLQMIKLLIKYGIDVTIRNAYDKTALDIAIDAKFSNIVEYLKTKSGKFRR
For B1, the “vasodilator response (relaxation)” value (rat hepatic artery; CGRP 8-37 (2 μM)) was −8±3%, the “vasodilator response (relaxation)” value (rat hepatic artery; capsaicin pre-treatment) was −16±8% and the “vasodilator response (relaxation)” value (rat hepatic artery; capsazepine (3 μM)) was 93±2%. The “vasodilator response (relaxation)” value (rat hepatic artery; control) was 98±1%.
